{
  "source": "paper PMC6327999",
  "about": "“Hydroxyl-substituted double Schiff-base condensed 4-piperidone/cyclohexanones as potential anticancer agents with biological evaluation” (Journal of Enzyme Inhibition and Medicinal Chemistry, 2019)",
  "key": {"[1]": {"test_system": "human liver hepatocellular carcinoma cell line (Hepg2)", "assay": "Cytotoxicity, MTT assay, HePG2", "assay_type": "cell-based", "description": "Compounds 2a–d, 3a–e, 4a–e, 5a–d, and 6a–c were screened against human neoplastic cell lines such as human lung carcinoma cells (A549), human gastric adenocarcinoma cells (SGC7901), human cervical carcinoma cells (HeLa), human liver hepatocellular carcinoma cell line (Hepg2), human chronic myelogenous leukemia cell line (K562), human acute mononuclear granulocyte leukemia (THP-1), human normal heptical cell line (LO2) (Table 1) using modified MTT assay (3-(4,5-dimethyl-2-thiazolyl)-2,5-diphenyl-2-H-tetrazolium bromide, MTT, Dojindo Laboratories, Tokyo, Japan). All cell lines were maintained at 37 °C in a humidified 5% CO2 and 95% air atmosphere. The HePG2 cell lines were cultured in DMEM containing 10% fetal bovine serum. Other cell lines were grown in medium 1640 and supplemented with 10% fetal bovine serum. […] Controls were prepared with 0.1% DMSO (v/v) only. The cells were seeded in a 96-well plate in 200 µL medium per well at a density of 1 × 10^4 cells/well for 24 hours. The cells were treated with serial concentrations of compound and incubated for 24 hours. Cells with only culture media were used as control. After the media was removed, 20 µL of MTT (5 mg/mL) was added then the plates were incubated for 4 hours at 37 °C in cell culture incubator. The MTT containing media were removed and then 150 µL of DMSO was added to dissolve the dark-blue formazan crystals. The optical density (OD) was measured by a multi-well plate reader (TECAN, Männedorf, Switzerland) at 570 nm. The results are expressed as a decrease in the cell viability (%) in comparison to untreated controls. The concentration of each compound was examined in triplicate, and the IC50 values are expressed in Table 1. The concentrations of the compounds were 50, 20, 10, 5, 2.5, 1, 0.5, 0.1, 0.05 and 0.01 µg/mL. […] The concentrations of curcumin used were 100, 50, 25, 12.5, 6.25, 3.125, 1, 0.5 and 0.1 µg/mL."}, "[2]": {"test_system": "human chronic myelogenous leukemia cell line (K562)", "assay": "Cytotoxicity, MTT assay, K562", "assay_type": "cell-based", "description": "(§1) Compounds 2a–d, 3a–e, 4a–e, 5a–d, and 6a–c were screened against human neoplastic cell lines such as human lung carcinoma cells (A549), human gastric adenocarcinoma cells (SGC7901), human cervical carcinoma cells (HeLa), human liver hepatocellular carcinoma cell line (Hepg2), human chronic myelogenous leukemia cell line (K562), human acute mononuclear granulocyte leukemia (THP-1), human normal heptical cell line (LO2) (Table 1) using modified MTT assay (3-(4,5-dimethyl-2-thiazolyl)-2,5-diphenyl-2-H-tetrazolium bromide, MTT, Dojindo Laboratories, Tokyo, Japan). All cell lines were maintained at 37 °C in a humidified 5% CO2 and 95% air atmosphere. The HePG2 cell lines were cultured in DMEM containing 10% fetal bovine serum. Other cell lines were grown in medium 1640 and supplemented with 10% fetal bovine serum. […] Controls were prepared with 0.1% DMSO (v/v) only. The cells were seeded in a 96-well plate in 200 µL medium per well at a density of 1 × 10^4 cells/well for 24 hours. The cells were treated with serial concentrations of compound and incubated for 24 hours. Cells with only culture media were used as control. After the media was removed, 20 µL of MTT (5 mg/mL) was added then the plates were incubated for 4 hours at 37 °C in cell culture incubator. The MTT containing media were removed and then 150 µL of DMSO was added to dissolve the dark-blue formazan crystals. The optical density (OD) was measured by a multi-well plate reader (TECAN, Männedorf, Switzerland) at 570 nm. The results are expressed as a decrease in the cell viability (%) in comparison to untreated controls. The concentration of each compound was examined in triplicate, and the IC50 values are expressed in Table 1. The concentrations of the compounds were 50, 20, 10, 5, 2.5, 1, 0.5, 0.1, 0.05 and 0.01 µg/mL. Doxorubicin (DOX) and Curcumin were used as positive controls. […] The concentrations of curcumin used were 100, 50, 25, 12.5, 6.25, 3.125, 1, 0.5 and 0.1 µg/mL."}, "[3]": {"test_system": "human normal heptical cell line (LO2)", "assay": "Cytotoxicity, MTT assay, non-malignant LO2", "assay_type": "cell-based", "conditions": "24 hours, non-malignant cells", "description": "as §1"}, "[4]": {"test_system": "human carcinoma cell lines A549, SGC7901, HePG2, HeLa, K562, THP-1", "assay": "Cytotoxicity, MTT assay, panel of human carcinoma cell lines (average / overall)", "assay_type": "cell-based", "conditions": "for IC50: Homo sapiens", "description": "as §1\nThe cytotoxicity activities against human carcinoma cell lines A549, SGC7901, HePG2, HeLa, K562, THP-1 and cytotoxicity toward LO2 cell lines were evaluated by MTT method. DOX and curcumin were used as positive control. The selectivity index (SI) is the quotient of the IC50 values towards nonmalignant LO2 cells. […] Especially for 4a–e, 5a–d, and 6a–c, this ratio can reach about 92%."}, "HepG2 cells": {"test_system": "HepG2 cells", "assay": "Apoptosis assay, Annexin V-FITC/PI flow cytometry", "assay_type": "cell-based, human", "conditions": "5c treatment for 24 hours, 1.0, 2.0, 4.0 µM, early and late apoptosis", "procedure": "HepG2 cells were plated at a density of 1 × 10^5 cells/well in 24-well plates. […] One hundred microliters of such solution (1 × 10^5 cells) was mixed with 5 µL of Annexin V-FITC and 5µL of Propidium Iodide (BD Biosciences, San Jose, CA, USA) according to the manufacturer’s instruction. The mixed solution was gently vortexed and incubated in the dark at room temperature for 15 minutes. Four hundred microliters of 1X binding buffer were then added to each tube and cell apoptosis analysis was performed by flow cytometry (BD FACS Calibur) within 1 hour."}, "Bax": {"test_system": "Bax", "assay": "Western blot, Bax expression", "assay_type": "cell-based, human", "conditions": "HepG2, 3 h, 1.0, 2.0, 4.0 µM, vs negative control", "procedure": "(§2) The HepG2 cell lines were treated with different dose of by BAP 5c (1.0, 2.0, 4.0 µM, respectively) for 3 hours, then washed twice with PBS, and lysed in ice-cold modified RIPA buffer containing PMSF (RIPA:PMSF = 100:1; the ultimate density of PMSF is 1.0 mM). The lysates were kept for 30 minutes on the ice, and then centrifuged for 15 min at 12000 rpm/min at 4 °C and the supernatant was collected. The proteins were boiled at 95 °C at 5 min with loading buffer (the volume ratio of protein and the loading buffer is 4:1). Each 50 µg protein of cell lysates were separated by 10% SDS-PAGE gel electrophoresis. The proteins were then transferred onto polyvinylidene fluorides membrane. The membranes were probed with antibodies and visualised using an enhanced chemiluminescence (ECL) detection kit according to the manufacturer instruction."}, "Bcl-2": {"test_system": "Bcl-2", "assay": "Western blot, Bcl-2 expression", "assay_type": "cell-based, human", "conditions": "HepG2, 3 h, 1.0, 2.0, 4.0 µM, vs negative control", "procedure": "as §2"}, "[5]": {"conditions": "quotient of the IC50 values towards nonmalignant LO2 cells"}},
  "note": "Read-outs that look alike come from different tables or passages of the source.",
  "data": [
    {"smiles": "O=C1/C(=C/c2cc(/N=C/c3ccc(O)c(O)c3O)ccc2F)CNC/C1=C\\c1cc(/N=C/c2ccc(O)c(O)c2O)ccc1F", "note": "[5c]", "values": [
      {"measurement": "IC50", "setting": "[1]; Homo sapiens, HepG2, MTT, 24 hours", "result": "600 ± 100", "unit": "nM"},
      {"measurement": "HePG2 SI", "setting": "[1]; [5]", "result": 24.5},
      {"measurement": "IC50", "setting": "[2]; Homo sapiens, K562, MTT, 24 hours", "result": "1300 ± 100", "unit": "nM"},
      {"measurement": "K562 SI", "setting": "[2]; [5]", "result": 11.8},
      {"measurement": "IC50", "setting": "[3]", "result": "15200 ± 600", "unit": "nM"},
      {"measurement": "IC50", "setting": "[4]; average over the six carcinoma cell lines, read-out: Ave IC50", "result": 1200, "unit": "nM"},
      {"measurement": "IC50", "setting": "[4]; statement for all experimental carcinoma cell lines, read-out: IC50 values against human carcinoma cell lines", "result": "< 2000", "unit": "nM"},
      {"measurement": "Ave SI", "setting": "[4]; average over the six carcinoma cell lines", "result": 14.1},
      {"measurement": "HepG2 cells apoptosis", "setting": "HepG2 cells", "result": "dose-dependent apoptosis"},
      {"measurement": "expression level of Bax", "setting": "Bax", "result": "up-regulate the expression level of Bax"},
      {"measurement": "expression level of Bcl-2", "setting": "Bcl-2", "result": "down-regulate the expression level of Bcl-2"}
    ]}
  ]
}
